Test results as given in patent US6894043B1, “Benzothiadiazine derivatives, preparation method and pharmaceutical compositions containing same” (Les Laboratoires Servier, priority 1999, dated 2005).

System: AMPA receptors
Test: Excitatory fluxes induced by AMPA in Xenopus oocytes (2-electrode voltage-clamp)
Format: cell-based
Conditions: AMPA 30 μM; Xenopus oocytes injected with rat cortex poly(A+) mRNA; 20-24° C.
Method: mRNAs are prepared from cerebral cortex of male Wistar rat by the guanidium thiocyanate/phenol/chloroform method. The poly(A^+)mRNAs are isolated by chromatography on oligo-dT cellulose and injected with 50 ng per oocyte. The oocytes are left for 2 to 3 days' incubation at 10° C. to enable expression of the receptors and are then stored at 8-10° C.
Electrophysiological recording is carried out in a plexiglass chamber at 20-24° C. in an OR2 medium (J. Exp. Zool., 1973, 184, 321-334) by the 2-electrode “voltage-clamp” method, with a 3rd electrode being placed in the bath to serve as reference.
All the compounds are administered via the incubation medium and the electric current is measured at the end of the period of administration. AMPA is used in a concentration of 30 μM. For each compound studied, there is determined the concentration that doubles (EC2X) or quintuples (EC5X) the intensity of the flux induced by AMPA alone (50 to 100 nA).

| Compound | EC2X (concentration that doubles the intensity of the flux induced by AMPA alone) [µM] | EC5X (concentration that quintuples the intensity of the flux induced by AMPA alone) [µM] |
| --- | --- | --- |
| CCN1CNS(=O)(=O)c2cc(I)ccc21 [Example 4, 4-Ethyl-7-iodo-2,3-dihydro-4H-1,2,4-benzothiadiazine 1,1-dioxide] | 95 ± 31 | >300 |
| CCN1CNS(=O)(=O)c2cc(Br)ccc21 [Example 3, 7-Bromo-4-ethyl-2,3-dihydro-4H-1,2,4-benzothiadiazine 1,1-dioxide] | 29 ± 6 | 78 ± 16 |
